The conditions of data set [1]: relative to sucrose of the same weight; cited from earlier work.
A short description of data set [2]: Sensory analysis (triangle test), taste comparison with sucrose as control sample. It is filed as in vivo. To be noted: vs sucrose; for Difference (number of answers) / No difference (number of answers): aqueous solutions of same sweetness. The source says:
The sweetener composition shall be tested, evaluated and analyzed by referring to Sensory Analysis Methodology (Triangular Test) (BS ISO 4120) and Sensory Analysis Method (Triangle Test) (GB/T 12311). The specific analysis method is as follows:
Method and principle: A group of three samples shall be provided to evaluators, two of which are identical and the evaluators shall select a single sample.
Preparation of test samples: Enough samples A and B shall be provided, and every three test samples are a group.
Sample groups with equal number of samples shall be prepared from laboratory samples in the following six combinations: ABB, AAB, ABA, BAA, BBA and BAB.
Test requirements: Evaluators shall not make conclusion as to the nature of samples from sample supply methods. All test sample groups shall be prepared in the same way [the same equipment, the same container, the same quantity of products and the same arrangement (triangle, straight line, etc.)]. In any sample group, the temperature of test samples shall be the same, and if possible, the temperature of all other sample groups in the test series provided shall also be the same. Test sample containers shall be numbered generally with three random digits. The number shall be different for each test.
Test techniques: Evaluators shall be notified of the test purpose to the extent that their conclusions are not biased. Groups of prepared samples shall be randomly assigned to the evaluators, then the evaluators shall check test samples of each group in the specified order, and the order shall be the same in the same series of tests. While evaluating three test samples in the same group, the evaluators shall have the opportunity to retest each sample. The test leader can tell the evaluators the quantity and volume of samples provided when necessary. When the number of evaluators is less than a multiple of 6, the following two approaches can be taken. (a) Discard redundant sample groups, or (b) Provide each evaluator with six groups of samples for retest.
When the evaluator cannot identify the difference, the answer “no difference” is allowed.
The number of “difference” or “no difference” answers shall be counted. When the number of evaluators (n) is greater than 100, the minimum number of answers needed to determine the significant difference in the triangle test at different significance levels (X) is calculated according to the following formula, and the nearest integer value shall be taken. Where, α is the significance level, which is an expected value.
The above evaluation and analysis methods were applied to analyze different compositions, with sucrose as the control sample. Samples and the control sample were prepared respectively into aqueous solutions with the same sweetness and then tested according to the requirements of the above-mentioned sensory analysis method. […]
Rebaudioside A (>97%), DM 3:1 mixture, DM 3:1 mixture-rebaudioside A (1:9, w/w), DM 3:1 mixture-rebaudioside A (9:1, w/w), DM 3:1 mixture-rebaudioside A (3:7, w/w) were analyzed according to the evaluation and analysis methods described above, with sucrose as the control sample. Samples and the control sample were prepared respectively into aqueous solutions with the same sweetness and then tested according to the requirements of the above-mentioned sensory analysis method. […]
Rebaudioside A (>97%), DM 3:1 mixture, DM 3:1 mixture-rebaudioside A (3:7, w/w), DM 3:1 mixture-rebaudioside A (7:3, w/w), DM 3:1 mixture-rebaudioside A (4:6, w/w) were analyzed according to the evaluation and analysis methods described above, with sucrose as the control sample. Samples and the control sample were prepared respectively into aqueous solutions with the same sweetness and then tested according to the requirements of the above-mentioned sensory analysis method. Effective evaluators are 125 primary evaluators, who were allowed to answer “no difference”. […]

The nature of data set [3]: Heat and pH stability of reb M. It is filed as physicochemical.
Data set [4] is described as follows: Solubility of reb M in water and solvents. It is filed as physicochemical.
[5] abbreviates: Evaluation I, 135 primary evaluators.
[6] abbreviates: Evaluation II, 135 primary evaluators.
[7] abbreviates: Evaluation III, 125 primary evaluators.
Where [8] appears, read: Evaluation IV, 128 primary evaluators.

For the compound “13-[(2O-β-D-glucopyranosyl-3-O-β-D-glucopyranosyl-β-D-glucopyranosyl)oxy]kaur-16-en18-oic acid, 2-O-β-D-glucopyranosyl-3-O-β-D-glucopyranosyl-β-D-glucopyranosyl ester [RD]”, the “Sweetness Multiple (1 for sucrose of the same weight)” value (“Sweetness Multiple” below) in data set [1] is 150-250. Also, in data set [2] (setting [5]), the “Difference (number of answers)” value amounted to 79, the “No difference (number of answers)” value came to 56 and the “Conclusion (taste compared with sucrose)” value is “Similar”.
As for `C=C1C[C@@]23CC[C@H]4[C@@](C)(CCC[C@@]4(C)C(=O)O[C@@H]4O[C@H](CO)[C@@H](O)[C@H](O)[C@H]4O)[C@@H]2CC[C@]1(O[C@@H]1O[C@H](CO)[C@@H](O)[C@H](O[C@@H]2O[C@H](CO)[C@@H](O)[C@H](O)[C@H]2O)[C@H]1O[C@@H]1O[C@H](CO)[C@@H](O)[C@H](O)[C@H]1O)C3` [RA, rebaudioside A], the “Sweetness Multiple” value in data set [1] is given as 350-450. Further, the “Difference (number of answers)” value in data set [2] (setting [6]) turned out to be 85; in data set [2] (setting [7]), 78; in data set [2] (setting [8]) it was 82. Also, the results for the “No difference (number of answers)” value in data set [2] (setting [6]), in data set [2] (setting [7]) and in data set [2] (setting [8]) were 50, 47 and 46, respectively. In addition, the “Conclusion (taste compared with sucrose)” value in data set [2] (setting [6]), in data set [2] (setting [7]) and in data set [2] (setting [8]) was “Dissimilar” in each case.
Take `C=C1C[C@@]23CC[C@H]4[C@@](C)(CCC[C@@]4(C)C(=O)O[C@@H]4O[C@H](CO)[C@@H](O)[C@H](O[C@@H]5O[C@H](CO)[C@@H](O)[C@H](O)[C@H]5O)[C@H]4O[C@@H]4O[C@H](CO)[C@@H](O)[C@H](O)[C@H]4O)[C@@H]2CC[C@]1(O[C@@H]1O[C@H](CO)[C@@H](O)[C@H](O[C@@H]2O[C@H](CO)[C@@H](O)[C@H](O)[C@H]2O)[C@H]1O[C@@H]1O[C@H](CO)[C@@H](O)[C@H](O)[C@H]1O)C3` [RM]: the “Sweetness Multiple” value in data set [1] is reported as 200-350. For the same compound, in data set [3], the “heat and pH stability” value is “heat and pH-stable”. For the same compound, in data set [2] (setting [5]), the “Difference (number of answers)” value is on record as 97, the “No difference (number of answers)” value amounted to 38 and the “Conclusion (taste compared with sucrose)” value is listed as “Dissimilar”. The “solubility in organic solvents” value in data set [4] (acetone, benzene, chloroform, and ether) is recorded as “insoluble”. In addition, the “solubility in diluted alcohols” value in data set [4] (diluted solutions of methanol, ethanol, n-propanol, and isopropanol) is listed as “soluble”. Also, the solubility in water entry in data set [4] (water, increases with an increase in temperature) is “around 0.3%”.
As for `C=C1C[C@@]23CC[C@H]4[C@@](C)(CCC[C@@]4(C)C(=O)O[C@@H]4O[C@H](CO)[C@@H](O)[C@H](O)[C@H]4O)[C@@H]2CC[C@]1(O[C@@H]1O[C@H](CO)[C@@H](O)[C@H](O)[C@H]1O[C@@H]1O[C@H](CO)[C@@H](O)[C@H](O)[C@H]1O)C3` [STv, stevioside, reference compound], the “Sweetness Multiple” value in data set [1] is recorded as 270-300.

The values are drawn from US11274328B2, “Methods for producing rebaudioside D and rebaudioside M and compositions thereof” (SICHUAN INGIA BIOSYNTHETIC CO., LTD., priority 2018, dated 2022).
